Measurements reported in patent publication US7407954B2, “Thieno-(1,3)-oxazin-4-ones with lipase inhibiting activity” (Alizyme Therapeutics Limited, priority 2001, dated 2008).

How the values were obtained:
human pancreatic lipase = target: T1, human pancreatic lipase (Homo sapiens, UniProt P16233); experiment: Lipase activity, quinine diimine dye colorimetric assay (Sigma Lipase-PS); assay type: biochemical
T1 sequence (P16233 17-465): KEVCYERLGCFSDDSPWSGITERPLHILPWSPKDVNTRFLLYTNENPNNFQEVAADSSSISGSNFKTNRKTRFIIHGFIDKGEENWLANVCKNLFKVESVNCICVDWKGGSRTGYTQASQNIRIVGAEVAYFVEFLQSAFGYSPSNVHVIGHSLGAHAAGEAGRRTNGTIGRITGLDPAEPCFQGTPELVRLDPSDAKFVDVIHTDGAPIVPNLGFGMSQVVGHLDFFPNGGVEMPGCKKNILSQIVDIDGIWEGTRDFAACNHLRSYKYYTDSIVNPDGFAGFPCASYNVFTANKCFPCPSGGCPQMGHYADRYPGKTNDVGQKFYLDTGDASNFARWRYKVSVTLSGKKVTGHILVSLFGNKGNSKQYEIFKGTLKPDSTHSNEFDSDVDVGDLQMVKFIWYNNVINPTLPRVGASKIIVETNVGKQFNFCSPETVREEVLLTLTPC
Experimental: Measurement of Lipase Activity Using a Quinine Diimine Dye Calorimetric Assay
The inhibitory activity of the selected compounds to pancreatic lipase was measured in the following assay available from Sigma Ltd (Lipase-PS™, catalog number 805-A):
The glycerol released from the action of pancreatic and monoglyceride lipase was oxidised to release H2O2. The peroxidase reaction step then produces a quinine dye which is pink in colour and absorbs light at a wavelength of 550 nm.
Individual test compounds were dissolved in DMSO (dimethyl sulphoxide) at 10 mM. DMSO was used to avoid any problems with compounds being water-insoluble.
For individual compounds, the IC50 (concentration at which lipase activity is inhibited to one half of the maximum) was calculated by measuring the inhibitory activity from log-dose response curves using a range of inhibitor concentrations.
A range of standard compounds were assayed in the quinine dye calorimetric assay which provides a rapid method to measure lipase inhibitory activity.

[1] = target: T2, porcine pancreatic lipase (Sus scrofa, UniProt P00591); experiment: Lipase enzyme activity, NaOH titration method (lipid micelles); assay type: biochemical; details: NaOH titration assay
T2 sequence (P00591 1-450): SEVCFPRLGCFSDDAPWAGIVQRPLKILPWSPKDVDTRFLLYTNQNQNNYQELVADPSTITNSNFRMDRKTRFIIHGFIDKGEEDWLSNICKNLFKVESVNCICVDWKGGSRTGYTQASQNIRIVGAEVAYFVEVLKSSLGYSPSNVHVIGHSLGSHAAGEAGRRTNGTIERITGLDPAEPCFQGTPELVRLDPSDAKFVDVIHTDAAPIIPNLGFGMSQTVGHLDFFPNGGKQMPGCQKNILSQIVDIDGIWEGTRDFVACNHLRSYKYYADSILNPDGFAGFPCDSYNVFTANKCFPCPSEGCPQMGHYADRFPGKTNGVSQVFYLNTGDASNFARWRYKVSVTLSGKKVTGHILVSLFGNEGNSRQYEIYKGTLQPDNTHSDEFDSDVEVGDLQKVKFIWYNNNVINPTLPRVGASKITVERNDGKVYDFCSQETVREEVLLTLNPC
Experimental: Measurement of Lipase Enzyme Activity Using a NaOH Titration Method
The inhibitory activity of the selected compound to pancreatic lipase was measured in the assay described in Pasquier et al; 1996, Vol 7, Nutritional Biochemistry, 293-302.
Log dose/response curves were constructed using a range of inhibitor concentrations.
Selected thieno-oxazinone compounds were tested in the NaOH titration assay. In this assay, the activity of porcine pancreatic lipase in a system containing lipid micelles is recorded. These conditions are therefore similar to those encountered in the gastrointestinal tract.

IC50 (human pancreatic lipase) [nM]	IC50 [1] [nM]	Structure (SMILES)
< 100	≤ 1000	CCCc1cc2c(=O)oc(Nc3ccc(Oc4ccccc4)cc3)nc2s1 [Compound 44, 6-Propyl-2-(4-phenoxy)phenylamino-4H-thieno[2,3-d][1,3]oxazin-4-one]
< 100	≤ 1000	O=c1oc(Nc2ccc(Oc3ccc(C(F)(F)F)cc3)cc2)nc2sccc12 [Compound 14, 2-(4-(4-Trifluoromethyl-phenoxy)phenylamino)-4H-thieno[2,3-d][1,3]oxazin-4-one]
< 100	≤ 1000	O=c1oc(Nc2ccccc2)nc2cc(-c3ccccc3)sc12 [Compound 6]
< 100	≤ 1000	Cc1cc2c(=O)oc(Nc3ccc(Oc4ccccc4)cc3)nc2s1 [Compound 9, 6-Methyl-2-(4-phenoxy)phenylamino-4H-thieno[2,3-d][1,3]oxazin-4-one]
< 100		CCCCCCCCCCCCc1cc2c(=O)oc(Nc3ccc(C#N)cc3)nc2s1 [Compound 31, 2-(4-Cyanophenyl)amino-6-dodecyl-4H-thieno[2,3-d][1,3]oxazin-4-one]
< 100		Cc1ccc(Oc2ccc(Nc3nc4sccc4c(=O)o3)cc2)cc1 [Compound 26, 2-(4-(4-Methylphenoxy)-phenylamino)-4H-thieno[2,3-d][1,3]oxazin-4-one]
< 100		O=c1oc(Nc2ccc(Oc3ccc(Cl)cc3)cc2)nc2sccc12 [Compound 25, 2-(4-(4-Chlorophenoxy)-phenylamino)-4H-thieno[2,3-d][1,3]oxazin-4-one]
< 100	≤ 1000	O=c1oc(Nc2ccc(Oc3ccccc3)cc2)nc2sc(Cc3ccccc3)cc12 [Compound 50, 6-Phenylmethyl-2-(4-phenoxy)phenylamino-4H-thieno[2,3-d][1,3]oxazin-4-one]
< 100		CCCc1cc2c(=O)oc(Nc3ccc(C#N)cc3)nc2s1 [Compound 28, 2-(4-Cyanophenyl)amino-6-propyl-4H-thieno[2,3-d][1,3]oxazin-4-one]
< 100		Cc1cc2c(=O)oc(NCCCCc3ccccc3)nc2s1 [Compound 32, 6-Methyl-2-(4-phenylbutyl)amino-4H-thieno[2,3-d][1,3]oxazin-4-one]
< 100		CCCCCCCCCCCCNc1nc2ccsc2c(=O)o1 [Compound 41, 2-Dodecylamino-4H-thieno[3,2-d][1,3]oxazin-4-one]
< 100	≤ 1000	O=c1oc(Nc2ccc(Sc3ccccc3)cc2)nc2sccc12 [Compound 16, 2-(4-Phenylthio)phenylamino-4H-thieno[2,3-d][1,3]oxazin-4-one]
< 100	≤ 1000	CCCCNc1nc2sc(C)cc2c(=O)o1 [Compound 47, 2-Butylamino-6-methyl-4H-thieno[2,3-d][1,3]oxazin-4-one]
< 100	≤ 1000	Cc1cc2c(=O)oc(Nc3ccccc3)nc2s1 [Compound 46, 6-Methyl-2-phenylamino-4H-thieno[2,3-d][1,3]oxazin-4-one]
< 100	≤ 1000	CC(C)(C)c1cc2nc(Nc3ccccc3)oc(=O)c2s1 [Compound 8]
< 100	≤ 1000	O=c1oc(Nc2ccc(Cc3ccccc3)cc2)nc2sccc12 [Compound 11, 2-(4-Phenylmethyl)phenylamino-4H-thieno[2,3-d][1,3]oxazin-4-one]
< 100		O=c1oc(Nc2ccc(Oc3ccc(C(F)(F)F)cc3)cc2)nc2ccsc12 [Compound 38, 2-(4-(4-Trifluoromethyl-phenoxy)phenylamino)-4H-thieno[3,2-d][1,3]oxazin-4-one]
< 100	≤ 1000	CCCCCCCCCCCCc1cc2c(=O)oc(Nc3ccc(Oc4ccccc4)cc3)nc2s1 [Compound 49, 6-Dodecyl-2-(4-phenoxy)phenylamino-4H-thieno[2,3-d][1,3]oxazin-4-one]

IC50 (human pancreatic lipase) [nM]	IC50 [1] [nM]	Structure (SMILES)
< 100	≤ 1000	O=c1oc(Nc2ccc(Oc3ccccc3)cc2)nc2ccsc12 [Compound 10, 2-(4-Phenoxy)phenylamino-4H-thieno[3,2-d][1,3]oxazin-4-one]
< 100	≤ 1000	CCCCCCCCCCCCCCCCNc1nc2sc(C)cc2c(=O)o1 [Compound 45, 2-Hexadecylamino-6-methyl-4H-thieno-[2,3-d][1,3]oxazin-4-one]
< 100		CCCCCCCCCCCCN(C)c1nc2sc(C)cc2c(=O)o1 [Compound 19, 2-N-Dodecyl-N-methylamino-6-methyl-4H-thieno[2,3-d][1,3]oxazin-4-one]
< 100		Cc1cc2c(=O)oc(Nc3ccc(C#N)cc3)nc2s1 [Compound 29, 2-(4-Cyanophenyl)amino-6-methyl-4H-thieno[2,3-d][1,3]oxazin-4-one]
< 100		N#Cc1ccc(Nc2nc3ccsc3c(=O)o2)cc1 [Compound 40, 2-(4-Cyanophenyl)amino-4H-thieno[3,2-d][1,3]oxazin-4-one]
< 100		O=C(Nc1ccccc1)c1ccc(Nc2nc3sccc3c(=O)o2)cc1 [Compound 24, 2-(4-Phenylcarbamoyl)phenylamino-4H-thieno[2,3-d][1,3]oxazin-4-one]
< 100		CCCCCCCCCCCCSc1nc2sc(C)cc2c(=O)o1 [Compound 21, 2-Dodecylthio-6-methyl-4H-thieno[2,3-d][1,3]oxazin-4-one]
< 100	≤ 1000	O=c1oc(Nc2ccc(Oc3ccccc3)cc2)nc2sccc12 [Compound 5, 2-(4-Phenoxy)phenylamino-4H-thieno[2,3-d][1,3]oxazin-4-one]
< 100	≤ 1000	Cc1cc2nc(Nc3ccc(Oc4ccccc4)cc3)oc(=O)c2s1 [Compound 43, 5-Methyl-2-(4-phenoxy)phenylamino-4H-thieno[3,2-d][1,3]oxazin-4-one]
< 100	≤ 1000	O=c1oc(Nc2ccccc2)nc2sccc12 [Compound 1, 2-Phenylamino-4H-thieno[2,3-d][1,3]oxazin-4-one]
< 100		N#Cc1ccc(Nc2nc3sc(Cc4ccccc4)cc3c(=O)o2)cc1 [Compound 30, 6-Phenylmethyl-2-(4-cyanophenyl)amino-4H-thieno[2,3-d][1,3]oxazin-4-one]
< 100	≤ 1000	O=C(c1ccccc1)c1ccc(Nc2nc3sccc3c(=O)o2)cc1 [Compound 12, 2-(4-Benzoyl)phenylamino-4H-thieno[2,3-d][1,3]oxazin-4-one]
< 100		O=c1oc(Nc2ccc(S(=O)(=O)c3ccccc3)cc2)nc2sccc12 [Compound 23, 2-(4-Phenylsulfonyl)phenylamino-4H-thieno[2,3-d][1,3]oxazin-4-one]
< 100		CCCCCCCCCCCCNc1nc2sccc2c(=O)o1 [Compound 20, 2-Dodecylamino-4H-thieno[2,3-d][1,3]oxazin-4-one]
< 100		N#Cc1ccc(Nc2nc3sccc3c(=O)o2)cc1 [Compound 27, 2-(4-Cyanophenyl)amino-4H-thieno[2,3-d][1,3]oxazin-4-one]
< 100		COC(=O)CCCCCNc1nc2sc(C)cc2c(=O)o1 [Compound 35, 2-(5-Methoxycarbonylpentyl)amino-6-methyl-4H-thieno[2,3-d][1,3]oxazin-4-one]
< 100		CCCCCCCCCCCCNc1nc2sc(C)cc2c(=O)o1 [Compound 18, 2-Dodecylamino-6-methyl-4H-thieno[2,3-d][1,3]oxazin-4-one]

Structure (SMILES)	IC50 (human pancreatic lipase) [nM]	IC50 [1] [nM]
Cc1cc2c(=O)oc(NCCCl)nc2s1 [Compound 33, 2-(2-Chloroethyl)amino-6-methyl-4H-thieno[2,3-d][1,3]oxazin-4-one]	< 100	
